Results published in patent US20230220331A1, “TEMPORARY TREATMENT MEDIUM, TREATMENT KIT, EMBRYOGENESIS ARREST INHIBITOR, EMBRYOGENESIS ARREST INHIBITORY METHOD, DEVELOPMENTAL ENGINEERING PRODUCT PREPARATION METHOD, TRANSPLANTATION METHOD, THERAPEUTIC METHOD, AND DEVELOPMENTAL ENGINEERING PRODUCT” (priority 2020, published 2023).

What was measured:
[1] = system: Pronuclear stage embryos of C57BL/6J; assay: Knockout mouse production by electroporation (TAKE), Mk-3 gene (Treatment Example 1); format: cell-based
Description: The TAKE was carried out according to the method described in Patent Document 2.
1. By 3 hours before TAKE, Y-27632-added mWM medium (Y-27632 final concentration 10 μM, an example of the “temporary treatment medium” of this example) and Y-27632-free mWM medium (an example of “normal medium” of this example) were dropped on 35 mm Petri dish in 5 drops, respectively, to prepare the drops covered with paraffin oil.
2. Pronuclear stage embryos were collected from the drops, placed in Y-27632-added mWM medium, and cultured for about 30 minutes to 1 hour (temporary treatment).
3. After that, TAKE was performed. At the time of this TAKE, as described above, the pronuclear stage embryo, after washing, was transferred to a genome editing solution for TAKE or an Opti-MEM solution. The same applied to the following processing.
4. After TAKE, the embryos were placed in Y-27632-added mWM medium (temporary treatment) and cultured under 37° C., 5% CO2, and ([…]) conditions until the next day (1 hour or more and within 12 hours).
5. If necessary, culture was continued or embryo transfer was performed in Y-free mWM medium.
According to a typical method, in the afternoon when female mice and rats were mated with males with vasoligation and confirmed to be plugged, about 10 each were transplanted into the left and right oviducts or uterus of plug-confirmed mature female mice and rats. […]

[2] = system: two-cell frozen embryos of heterologous inbred SPR2 mouse; assay: Individual production from frozen eggs of SPR2 (Treatment Example 3); format: cell-based, Mus spretus; conditions: SPR2 frozen 2-cell embryos thawed, 1 hour in Y-27632 medium
Description: 1. Up to 3 hours before TAKE, Y-27632-added mWM medium (Y-27632 final concentration 10 μM, an example of the “temporary treatment medium” of this example), Y-27632-free mWM medium (an example of “normal medium” of this example) were dropped into 35 mm Petri dishes by 5 drops, respectively, to prepare drops covered with paraffin oil. 2. Two-cell stage embryos were collected from the drops or thawed, placed in Y-27632-added mWM medium, and cultured for about 30 minutes to 1 hour (temporary treatment). According to a typical method, in the afternoon when female mice and rats were mated with males with vasoligation and confirmed to be plugged, about 10 each were transplanted into the left and right oviducts or uterus of plug-confirmed mature female mice and rats. In this production example, two-cell frozen embryos of SPR2 were thawed, cultured in a temporary treatment medium containing Y-27632 for 1 hour, and transplanted into the uterus of a pseudopregnant female mouse. […] As a result, frozen embryo-derived individuals (16 transplanted embryos, 6 newborns) were obtained.

[3] = system: Early embryos of the heterologous mouse Mus caroli; assay: ES cell establishment from electroporated early embryos (Treatment Example 4); format: cell-based; conditions: Mus caroli early embryos cultured in Y-27632 medium, then electroporated
Description: 1. Up to 3 hours before TAKE, Y-27632-added mWM medium (Y-27632 final concentration 10 μM, an example of the “temporary treatment medium” of this example), Y-27632-free mWM medium (an example of “normal medium” of this example) were dropped into 35 mm Petri dishes by 5 drops, respectively, to prepare drops covered with paraffin oil.
2. Two-cell stage embryos were collected from the drops or thawed, placed in Y-27632-added mWM medium, and cultured for about 30 minutes to 1 hour (temporary treatment).
3. After that, TAKE was performed.
4. After TAKE, the embryos were placed in Y-27632-added mWM medium and cultured for about 30 minutes to 1 hour (temporary treatment). Then, the embryos were placed in Y-27632-free mWM medium and cultured at 37° C. under 5% CO2 and 5% O2 conditions until transplantation.
5. Then, if necessary, the culture was continued in the Y-27632-free mWM medium to establish ES cells.
When Mus caroli ES cells were knocked out of the Tyr gene by genome editing and a part of them was analyzed, it was shown that NHEJ occurred and heterologous mouse ES cells were established.

[4] = system: NOD-scid mouse embryos; assay: Bbox1 and IL2rg DKO screening in NOD-scid mice (Treatment Example 14); format: cell-based
Description: Then, in the same manner as in Treatment Example 7 of Example 1, in the NOD-scid strain, which is another strain of a severe combined immunodeficiency mouse, genome editing of multiple genes was performed, and individuals were produced. Here, individuals in which both the mBBOX1 and mIL2RG genes of NOD-scid mice were knocked out were prepared by the same treatment method as the above-mentioned treatment example used for BALB/c nude.

[5] = system: early embryos of the inbred mouse B6J strain; assay: Recovery of inbred mouse early embryos frozen and thawed multiple times (Treatment Example 15); format: cell-based; conditions: frozen TWICE
From the text: Then, in the same manner as in Treatment Example 9 according to Example 1, it was investigated whether or not the early embryos of the inbred mouse B6J strain, not the normal mice, could recover after frozen and thawed at multiple times.

[6] = 16 blastocysts transferred to uterus (3.5 days)
[7] = NOD-scid F0, Bbox1 and IL2rg, listed as temporary treatment medium

C[C@@H](N)[C@H]1CC[C@H](C(=O)Nc2ccncc2)CC1 [Y-27632, trans-4-[(1R)-1-Aminoethyl]-N-4-pyrid inylcyclohexanecarboxamide]
birth rate increased ([1]; C57BL/6J embryos cultured in Y-27632 medium before and after electroporation, Mk-3 knockout with two gRNAs, versus without Y-27632): about 5 times
efficiency of non-homologous end joining (NHEJ) ([1]; C57BL/6J, Mk-3 knockout, Y-27632 before and after electroporation): did not change
NUMBER OF BIRTHS FEMALE [2, 6]: 4
NUMBER OF BIRTHS MALE [2, 6]: 2
NUMBER OF BIRTHS TOTAL (newborns) ([2]; 16 embryos transferred to uterus (3.5 days)): 6
ES cells established [3]: at a high rate
individuals mutated at Bbox1 Ex3 (chr. 2) (proportion) ([4]; NOD-scid F0): #U: unknown mutation (4/9) (4/9)
individuals mutated at Il2rg (chr. X) Ex2 (proportion) ([4]; NOD-scid F0): #U: unknown mutation (4/9) (4/9)
individuals mutated at Il2rg (chr. X) Ex3 (proportion) ([4]; NOD-scid F0): #U: unknown mutation (4/9) (4/9)
individuals with mutations in one of the two genes (%) [4, 7]: 66.7%
individuals with mutations in one of the two genes (proportion) [4, 7]: 6 out of 9 and (6/9)
NUMBER OF RECOVERIES [5]: 24/26
recoveries % [5]: 92%
